Earlier results as cited in patent publication US10016389B2, “Method of making liposomes, liposome compositions made by the methods, and methods of using the same” (LivOn Laboratories, priority 2011, dated 2018).

Columns and labels:
[1] = not given; remark: listed apart in the source
[2] = not given; remark: listed apart in the source
[3] = not given; remark: listed apart in the source
[4] = rat populations
[5] = 1000 mg daily, 42 days

Row | SMILES | improvement of insulin sensitivity (oral 600, 1200 or 1800 mg/day, after 4 weeks) | improvement of insulin-stimulated glucose disposal (insulin sensitivity) (single intravenous infusion of 1000 mg, vs placebo infusion) | survival rate after a stroke vs untreated animals [1] | reduction of risk of cerebrovascular deaths ([2]; Linxian trial, 120 mg daily plus molybdenum for 5-6 years, 10 years follow-up) | lower risk of coronary heart disease ([2]; ≥700 mg/day, pooled analysis of nine studies) | peak plasma concentrations ([3]; 3 g orally every 4 hours, predicted by pharmacokinetic modeling) | half-life ([3]; in vivo) | plasma concentrations ([3]; intravenous administration) | oral LD50 [4] | average fasting blood glucose levels ([5]; fell from 169.33 mg/dl) | average LDL ([5]; reduced from 130.95 mg/dl) | Average HbA1C ([5]; reduced from 8,82%) | Insulin levels ([5]; reduced from 16.91 microunits/mL)
1 | O=C(O)CCCCC1CCSS1 (racemic) [racemic ALA, alpha lipoic acid] | 25% | 50% | four times greater survival rate | – | – | – | – | – | – | – | – | – | –
2 | O=C1O[C@H]([C@@H](O)CO)C(O)=C1O [vitamin C, L-ascorbic acid] | – | – | – | 8% | 25% | 220 µmol/L | 30 min | ≤ 26,000 micromol/L | 11,900 mg per kg | 144.80 mg/dL | 125.91 mg/dL | 7.66% | 8.77 microunits/mL
